We go through 1 compound from ChEMBL document CHEMBL3832026.

SMILES strings stand for the structures. “And” between values parts separate entries of the source, which are not always exact repeats. Identical values can stand only once.

Common to all, as to assay type: ADME, organism-based
Data set [1] is described as follows: (§1) Mean pharmacokinetic parameters of Mycophenolic acid following multiple dose administration of 720 mg Mycophenolic acid delayed-release tablets to adult renal transplant patients on Cyclosporine, USP MODIFIED based immunosuppression. The following applies: human, in vivo, po, 720 mg. Further details: dose 720 mg, route oral.
Data set [2] concerns Homo sapiens. The data set is described as §1. The following applies: in vivo, po. Further details: dose 720 mg, route oral.
The nature of data set [3]: (§2) Mean pharmacokinetic parameters of Mycophenolic acid following single oral administration of Mycophenolic acid delayed-release tablets to adult or pediatric (age range 5 to 16 years) renal transplant patients on Cyclosporine, USP MODIFIED based immunosuppression. Further details: dose 450 mg/m-2, dose 1 g, dose 720 mg, route oral. The following applies: human, in vivo.

Data set [4] concerns Homo sapiens. The description is as §2. Further details: dose 450 mg/m-2, dose 1 g, dose 720 mg, route oral. The following applies: in vivo.
Data set [5] in a line: (§3) Pharmacokinetic parameters of Mycophenolic acid following administration of 360 to 2160 mg Mycophenolic acid delayed-release tablets to renal transplant patients on Cyclosporine, USP MODIFIED based immunosuppression. The following applies: human, in vivo, po.
For data set [6], the system named is Homo sapiens. The description is as §3. The following applies: in vivo, po.

For `COc1c(C)c2c(c(O)c1C/C=C(\C)CCC(=O)O)C(=O)OC2` [MYCOPHENOLIC ACID], the Tmax (commonly the time from dosing to the highest level) in data set [1] was determined as 2 h. In data set [2], the “AUC(0-12)” value is 57.4 mcg.hr/mL [middle of 6 runs]; the Cmax – broadly, the highest concentration seen after dosing – was 26.2 mcg/mL [middle of 5 runs]; the Tmax is 1.5 h and 2.5 h and 1.8 h. Besides, in data set [3], the concentration peaked (Cmax) at 36300 ng/mL and the time of peak concentration (Tmax) came to 2.5 h. Further, the AUC (commonly concentration integrated over time) in data set [3] (dosed compound id 90, dosed compound name MYCOPHENOLATE MOFETIL, regimen Single dose, tissue Plasma, read-out: AUC(0-48)) was 42700 ng·h/mL. Besides, the AUC in data set [3] (read-out: AUC(0 to inf)) is 74300 ng·h/mL. In data set [4], the “AUC(0 to inf)” value came to 66500 ng·h/mL, the Cmax amounted to 26100 ng/mL and the Tmax was 2 h. Further, in data set [4] (dosed compound id 90, dosed compound name MYCOPHENOLATE MOFETIL, regimen Single dose, tissue Plasma), the “AUC(0-48)” value was determined as 48300 ng·h/mL. For the same compound, in data set [5], the apparent clearance CL/F (as a rule, the apparent clearance, not corrected for the fraction that reaches the circulation) was 140 mL/min. In data set [6], this compound gave a Vd of 112 L and a Vss of 54 L.
